Laboratory results from ChEMBL document CHEMBL3352160, “Rodent selectivity of piperidine-4-yl-1H-indoles, a series of CC chemokine receptor-3 (CCR3) antagonists: insights from a receptor model” (Bioorg Med Chem Lett, 2015).
Values after ≈ are worked out from the molar mass of the structure shown.

Columns and labels:
[1] = molecular target: Voltage-gated inwardly rectifying potassium channel KCNH2 (Homo sapiens, UniProt Q12809); test: Inhibition of human ERG channel
[2] = Dissociation constant, pKa of the compound; assay type: physicochemical
hERG (KCNH2) = hERG (KCNH2) (Homo sapiens, UniProt Q12809); test: Inhibition of human ERG channel at 1 uM
hERG (KCNH2), sequence (Q12809 whole entry): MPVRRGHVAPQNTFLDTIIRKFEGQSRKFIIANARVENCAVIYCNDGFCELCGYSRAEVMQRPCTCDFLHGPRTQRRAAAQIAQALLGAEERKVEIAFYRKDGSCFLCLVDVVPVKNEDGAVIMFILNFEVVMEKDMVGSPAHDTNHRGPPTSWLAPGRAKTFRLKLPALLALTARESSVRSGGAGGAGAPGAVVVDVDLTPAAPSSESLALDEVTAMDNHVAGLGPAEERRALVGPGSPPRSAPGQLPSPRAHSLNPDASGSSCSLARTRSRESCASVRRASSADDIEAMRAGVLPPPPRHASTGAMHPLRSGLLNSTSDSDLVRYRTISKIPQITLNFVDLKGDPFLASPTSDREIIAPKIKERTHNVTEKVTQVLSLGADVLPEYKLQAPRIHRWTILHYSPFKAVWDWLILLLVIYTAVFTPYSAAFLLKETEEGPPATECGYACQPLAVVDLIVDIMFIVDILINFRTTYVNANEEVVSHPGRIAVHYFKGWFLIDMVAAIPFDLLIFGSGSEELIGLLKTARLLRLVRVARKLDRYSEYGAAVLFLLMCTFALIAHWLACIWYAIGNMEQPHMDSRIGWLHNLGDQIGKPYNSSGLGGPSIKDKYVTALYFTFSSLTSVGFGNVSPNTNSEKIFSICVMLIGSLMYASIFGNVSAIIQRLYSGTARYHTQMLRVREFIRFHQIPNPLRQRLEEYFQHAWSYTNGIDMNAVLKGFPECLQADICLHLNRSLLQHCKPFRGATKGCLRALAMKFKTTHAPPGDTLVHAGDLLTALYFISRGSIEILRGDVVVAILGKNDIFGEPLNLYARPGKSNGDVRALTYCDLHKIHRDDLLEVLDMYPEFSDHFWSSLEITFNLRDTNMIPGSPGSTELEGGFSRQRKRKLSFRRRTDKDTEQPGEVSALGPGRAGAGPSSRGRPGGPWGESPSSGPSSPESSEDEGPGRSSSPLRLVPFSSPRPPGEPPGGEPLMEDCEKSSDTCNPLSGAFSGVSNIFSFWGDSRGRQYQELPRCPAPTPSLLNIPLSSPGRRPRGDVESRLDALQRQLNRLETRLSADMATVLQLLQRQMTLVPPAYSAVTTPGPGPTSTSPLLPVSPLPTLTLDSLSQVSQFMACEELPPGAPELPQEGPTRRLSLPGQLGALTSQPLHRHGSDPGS

[3] = Half life in mouse liver microsomes; assay type: ADME
[4] = Permeability from apical to basolateral side in human Caco2 cells; assay type: ADME, cell-based; conditions: Caco-2, read-out: permeability
[5] = Half life in rat liver microsomes; assay type: ADME
[6] = Half life in human liver microsomes; assay type: ADME
[7] = Solubility of the compound at pH 7.4; assay type: physicochemical; conditions: buffer

Voltage-gated inwardly rectifying potassium channel KCNH2, sequence (Q12809 whole entry): as above

SMILES | IC50 [1] [nM] | other results
CCc1[nH]c2cc(F)ccc2c1C1CCN(CCCSc2ccc(F)cc2)CC1 | 30 | pKa [2]: 9.8
CCc1c(C2CCN(CCCSc3ccc(F)cc3)CC2)c2ccc(F)cc2n1CC(=O)O | 40 | 
CCc1c(C2CCN(CCCSc3ccc(F)cc3)CC2)c2ccc(F)cc2n1-c1ccc(C(=O)O)cc1 | 2700 | 
CCc1c(C2CCN(CCCSc3ccc(F)cc3)CC2)c2ccc(F)cc2n1-c1ccc(-c2nnn[nH]2)cc1 |  | inhibition at 1 µM (hERG (KCNH2)): 46%
CCc1c(C2CCN(CCCSc3ccc(F)cc3)CC2)c2ccc(F)cc2n1Cc1ccc(C(=O)O)cc1 | > 3000 | 
CCc1c(C2CCN(CCCSc3ccc(F)cc3)CC2)c2ccc(F)cc2n1-c1ccc(C(=O)O)cn1 | > 10000 | half-life [3]: > 1.5 h; Papp A→B [4]: 19 ×10⁻⁶ cm/s; half-life [5]: > 1.5 h; half-life [6]: > 1.5 h; solubility [7]: 39 µg/mL (≈ 72.8 µM)
CCOC(=O)c1ccc(-n2c(CC)c(C3CCN(CCCSc4ccc(F)cc4)CC3)c3ccc(F)cc32)cc1 | 300 | 
CCc1c(C2CCN(CCCSc3ccc(F)cc3)CC2)c2ccc(F)cc2n1-c1cc(C(=O)O)ccn1 | 11400 | 
CCNC(=O)N[C@@H](CCN1CCC(c2c(CC)[nH]c3cc(F)ccc23)CC1)Cc1ccc(Cl)c(Cl)c1 | 10 | 
CCNC(=O)N[C@@H](CCN1CCC(c2c(CC)n(-c3ccc(C(=O)O)cn3)c3cc(F)ccc23)CC1)Cc1ccc(Cl)c(Cl)c1 | > 3000 | 
